Reference: ChEMBL document CHEMBL2150966, “Discovery of a novel series of potent and orally bioavailable phosphoinositide 3-kinase γ inhibitors” (J Med Chem, 2012)
Converted amounts (≈) assume the structure as drawn.

Key:
[1] = Plasma concentration in C57BL6 mouse at 100 mg/kg, po after 1 hr; type: ADME, organism-based; design: dose 100 mg/kg, route oral
[2] = Plasma concentration in C57BL6 mouse at 100 mg/kg, po after 4 hr; type: ADME, organism-based; design: dose 100 mg/kg, route oral
[3] = Apparent permeability across apical to basolateral side of MDCK cells; type: ADME, cell-based, Canis lupus familiaris; conditions: dog
[4] = Kinetic solubility of compound in PBS at pH 7.4; type: physicochemical; conditions: read-out: Kinetic_solubility
in vivo = conditions: BALB/c, mouse, plasma, po, 100 mg/kg
[5] = Lipophilicity of compound, Log D; type: physicochemical; conditions: octanol/water
[6] = Cmax in Sprague-Dawley rat at 5 mg/kg, po; type: ADME, organism-based; design: dose 5 mg/kg, route oral; conditions: in vivo
[7] = Oral bioavailability Sprague-Dawley rat at 5 mg/kg; type: ADME, organism-based; conditions: in vivo
[8] = AUC (0 to infinity) in Sprague-Dawley rat at 5 mg/kg, po; type: ADME, organism-based; design: time infinity, dose 5 mg/kg, route oral; conditions: plasma
[9] = Half life in Sprague-Dawley rat at 5 mg/kg, po; type: ADME, organism-based; design: dose 5 mg/kg, route oral; conditions: in vivo
[10] = Drug metabolism in mouse liver microsome assessed as compound oxidation after 30 mins; type: ADME; conditions: liver microsomes, read-out: Drug metabolism

SMILES	concentration at 1 h [1] [µM]	concentration at 4 h [2] [µM]	Papp A→B [3] [×10⁻⁶ cm/s]	other results
COc1nc(N)ncc1-c1ccc(Cl)c(S(=O)(=O)Nc2cccc(F)c2F)c1			10	
Nc1ncc(-c2ccc(Cl)c(S(=O)(=O)Nc3cccc(F)c3F)c2)c(OCC(F)(F)F)n1			10	
CNC(=O)c1nc(-c2cccc(NS(=O)(=O)c3cccc(Cl)c3)c2)cnc1N			10	
CNC(=O)c1nc(-c2cccc(S(=O)(=O)Nc3cccc(F)c3F)c2)cnc1N			10	
CNC(=O)c1nc(-c2cccc(-c3nnn[nH]3)c2)cnc1N				solubility kinetic [4]: 424 µM (≈ 126 µg/mL); logD [5]: 0.47
Nc1ncc(-c2ccc(Cl)c(S(=O)(=O)Nc3cccc(F)c3F)c2)cn1			10	
CNC(=O)c1nc(-c2cccc(S(=O)(=O)Nc3ccccc3)c2)cnc1N			10	
CNC(=O)c1nc(-c2cccc(S(=O)(=O)Nc3cccc(Cl)c3)c2)cnc1N	0.6	0.4	10	
CNC(=O)c1nc(-c2cnc(N)c(S(=O)(=O)Nc3ccccc3)c2)cnc1N			10	
COc1ccc(-c2cccc(S(=O)(=O)N3CCN(c4nccnc4-c4ccc(OC)cc4)CC3)c2)cc1	0.5	0.1		
CNC(=O)c1nc(-c2cccc(NS(=O)(=O)c3ccccc3)c2)cnc1N			10	
CC(C)c1ccc(-c2nccnc2N2CCN(S(=O)(=O)c3cccc(-c4cnc(N)nc4)c3)CC2)cc1	0.7	0.1		metabolised at 0.5 h [10]: 79%
CS(=O)(=O)N1CCN(Cc2cc3nc(-c4cccc5[nH]ncc45)nc(N4CCOCC4)c3s2)CC1 [PICTILISIB]				concentration at 4 h (in vivo): 5.3 µM
Nc1cnc(-c2ccc(Cl)c(S(=O)(=O)Nc3cccc(F)c3F)c2)cn1			10	
CNC(=O)c1nc(-c2ccc(Cl)c(S(=O)(=O)NCC(F)(F)F)c2)cnc1N			10	solubility kinetic [4]: 211 µM (≈ 89.4 µg/mL)
CC(C)c1ccc(-c2ncccc2N2CCN(S(=O)(=O)c3cccc(-c4cnc(N)nc4)c3)CC2)cc1	12.9	3.2		solubility kinetic [4]: < 5 µM; bioavailability [7]: 12.7%; AUC(0-inf) [8]: 0.9 µM·h; logD [5]: > 4; half-life [9]: 1.82 h; metabolised at 0.5 h [10]: 37%

Second part, led by results:

concentration at 1 h [1] [µM]	concentration at 4 h [2] [µM]	Papp A→B [3] [×10⁻⁶ cm/s]	SMILES	other results
1.7	0.4	10	CNC(=O)c1nc(-c2ccc(Cl)c(S(=O)(=O)Nc3cccc(C(F)(F)F)c3)c2)cnc1N	
		10	CNC(=O)c1nc(-c2ccc(Cl)c(S(=O)(=O)Nc3cccc(C)c3)c2)cnc1N	
1.3	0.1	10	CNC(=O)c1nc(-c2ccc(Cl)c(S(=O)(=O)Nc3cccc(Cl)c3)c2)cnc1N	solubility kinetic [4]: < 1 µM
173	22.1	10	CNC(=O)c1nc(-c2ccc(Cl)c(S(=O)(=O)Nc3cccc(Cl)c3Cl)c2)cnc1N	
64.8	19.2	10	CNC(=O)c1nc(-c2ccc(Cl)c(S(=O)(=O)Nc3ccc(F)cc3Cl)c2)cnc1N	concentration at 4 h (in vivo): 20.3 µM
		10	CNC(=O)c1nc(-c2ccc(Cl)c(S(N)(=O)=O)c2)cnc1N	
		10	CNC(=O)c1nc(-c2ccc(Cl)c(S(=O)(=O)Nc3ccc(Cl)cc3)c2)cnc1N	
		10	CNC(=O)c1nc(-c2ccc(F)c(S(=O)(=O)Nc3ccccc3)c2)cnc1N	
1.6	1	10	CNC(=O)c1nc(-c2ccc(Cl)c(S(=O)(=O)Nc3cccc(F)c3)c2)cnc1N	
		10	CNC(=O)c1nc(-c2ccc(Cl)c(NS(=O)(=O)c3cccc(Cl)c3)c2)cnc1N	
333	119	55	CNC(=O)c1nc(-c2ccc(Cl)c(S(=O)(=O)Nc3cccc(F)c3F)c2)cnc1N	Cmax [6]: 42.5 µM; solubility kinetic [4]: 176 µM (≈ 79.9 µg/mL); concentration at 4 h (in vivo): 43.1 µM; bioavailability [7]: 76.7%; AUC(0-inf) [8]: 449 µM·h; half-life [9]: 4.44 h
13.1	6.2	10	CNC(=O)c1nc(-c2ccc(Cl)c(S(=O)(=O)Nc3cccc(F)c3C)c2)cnc1N	Cmax [6]: 9.1 µM; concentration at 4 h (in vivo): 9.2 µM; bioavailability [7]: 66.2%; AUC(0-inf) [8]: 26.8 µM·h; half-life [9]: 2.08 h
		10	CNC(=O)c1nc(-c2ccc(Cl)c(S(=O)(=O)NC)c2)cnc1N	
		10	CNC(=O)c1nc(-c2ccc(OC)c(S(=O)(=O)Nc3ccccc3)c2)cnc1N	
21.3	8.6	10	CNC(=O)c1nc(-c2ccc(Cl)c(S(=O)(=O)Nc3ccc(Cl)cc3Cl)c2)cnc1N	concentration at 4 h (in vivo): 6.5 µM
237	39.8	10	CNC(=O)c1nc(-c2ccc(Cl)c(S(=O)(=O)Nc3cccc(F)c3Cl)c2)cnc1N	
		10	CNC(=O)c1nc(-c2ccc(Cl)c(S(=O)(=O)Nc3ccccc3)c2)cnc1N	
0.7	0.09	10	CNC(=O)c1nc(-c2ccc(Cl)c(S(=O)(=O)Nc3cccc(OC)c3)c2)cnc1N	
59.1	9.6	10	CNC(=O)c1nc(-c2ccc(Cl)c(S(=O)(=O)Nc3ccccc3Cl)c2)cnc1N	solubility kinetic [4]: 24 µM (≈ 10.9 µg/mL)
